Here are results for 1 compound from ChEMBL document CHEMBL5365427, “Discovery and Structural Optimization of Covalent ZAP-70 Kinase Inhibitors against Psoriasis” (J Med Chem, 2023).

SMILES strings stand for the structures. Activity calls are given as the source filed them. The rule behind the calls is not given here.

Experiment [1] addresses Tyrosine-protein kinase SYK (Homo sapiens, UniProt P43405). The experiment in a line: Inhibition of SYK (unknown origin) using ULight-TK peptide as substrate at 1 uM incubated for 120 mins in presence of ATP by Lance Ultra Kinase assay relative to control.
Experiment [2] concerns Mus musculus. The experiment can be described thus: Anti-inflammatory activity in imiquimod-induced BALB/c mouse psoriasis model assessed as decrease in clinical sign of psoriasis in skin at TOP administration, 2 % applied for 7 days. Conditions: time 7.0 day. Type of experiment: functional, organism-based.
Experiment [3] has as its target T1, Serine/threonine-protein kinase PLK4 (Homo sapiens) (UniProt O00444).
T1 sequence (whole entry): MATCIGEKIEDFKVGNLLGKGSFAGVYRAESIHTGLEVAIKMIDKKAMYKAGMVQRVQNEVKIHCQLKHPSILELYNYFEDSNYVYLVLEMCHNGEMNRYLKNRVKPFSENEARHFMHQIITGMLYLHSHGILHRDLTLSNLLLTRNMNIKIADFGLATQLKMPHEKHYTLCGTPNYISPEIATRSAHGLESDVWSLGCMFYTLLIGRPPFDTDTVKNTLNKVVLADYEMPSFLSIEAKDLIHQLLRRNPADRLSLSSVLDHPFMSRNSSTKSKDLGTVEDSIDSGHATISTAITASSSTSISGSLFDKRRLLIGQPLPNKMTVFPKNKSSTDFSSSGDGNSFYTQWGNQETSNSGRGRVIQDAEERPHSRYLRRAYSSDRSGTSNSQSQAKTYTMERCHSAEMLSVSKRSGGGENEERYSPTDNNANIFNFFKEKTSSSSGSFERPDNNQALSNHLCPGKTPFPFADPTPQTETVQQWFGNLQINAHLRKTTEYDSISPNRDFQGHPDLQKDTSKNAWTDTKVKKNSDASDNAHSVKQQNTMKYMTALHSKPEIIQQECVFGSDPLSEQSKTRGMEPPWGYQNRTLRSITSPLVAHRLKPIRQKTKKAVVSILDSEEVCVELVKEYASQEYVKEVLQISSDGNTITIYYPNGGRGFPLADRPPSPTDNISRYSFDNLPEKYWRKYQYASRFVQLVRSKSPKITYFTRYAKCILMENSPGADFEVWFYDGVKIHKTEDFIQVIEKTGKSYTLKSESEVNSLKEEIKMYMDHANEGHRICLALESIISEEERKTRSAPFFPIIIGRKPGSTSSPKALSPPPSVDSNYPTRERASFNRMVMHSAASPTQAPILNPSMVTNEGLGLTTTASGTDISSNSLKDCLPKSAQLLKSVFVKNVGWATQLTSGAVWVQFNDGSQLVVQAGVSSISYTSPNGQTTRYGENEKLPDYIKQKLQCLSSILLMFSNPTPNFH
The experiment can be described thus: Inhibition of PLK4 (unknown origin) at 1 uM relative to control.

Experiment [4] relates to Mus musculus. The experiment in a line: Anti-inflammatory activity in imiquimod-induced BALB/c mouse psoriasis model assessed as decrease in splenomegaly at TOP administration, 2 % applied for 7 days. Type of experiment: functional, organism-based. Conditions: time 7.0 day.

Take `C=CC(=O)Nc1cc(CNc2nc(Nc3ccc(N4CCOCC4)c(OC)c3)c(C(N)=O)c3nccn23)ccc1Cl`: the inhibition in experiment [1] is 72.5%; in experiment [3], above 90%. The outcome in the experiment with Mus musculus [2] and in the experiment on Mus musculus [4] was Active.
